Experimental data reported in US20220112187A1, “PYRAZOLOPYRIDINE AMINE COMPOUNDS FOR THE TREATMENT OF AUTOIMMUNE DISEASE” (Hoffmann-La Roche Inc., priority 2018, published 2022).

target: T1, human TLR8 (Homo sapiens, UniProt Q9NR97); assay: HEK293-Blue-hTLR-8 cells assay (SEAP reporter, R848 stimulation); type: cell-based; settings: HEK293-Blue-hTLR8 cells, R848 ligand, 20 hrs incubation
T1 sequence (Q9NR97 27-1041): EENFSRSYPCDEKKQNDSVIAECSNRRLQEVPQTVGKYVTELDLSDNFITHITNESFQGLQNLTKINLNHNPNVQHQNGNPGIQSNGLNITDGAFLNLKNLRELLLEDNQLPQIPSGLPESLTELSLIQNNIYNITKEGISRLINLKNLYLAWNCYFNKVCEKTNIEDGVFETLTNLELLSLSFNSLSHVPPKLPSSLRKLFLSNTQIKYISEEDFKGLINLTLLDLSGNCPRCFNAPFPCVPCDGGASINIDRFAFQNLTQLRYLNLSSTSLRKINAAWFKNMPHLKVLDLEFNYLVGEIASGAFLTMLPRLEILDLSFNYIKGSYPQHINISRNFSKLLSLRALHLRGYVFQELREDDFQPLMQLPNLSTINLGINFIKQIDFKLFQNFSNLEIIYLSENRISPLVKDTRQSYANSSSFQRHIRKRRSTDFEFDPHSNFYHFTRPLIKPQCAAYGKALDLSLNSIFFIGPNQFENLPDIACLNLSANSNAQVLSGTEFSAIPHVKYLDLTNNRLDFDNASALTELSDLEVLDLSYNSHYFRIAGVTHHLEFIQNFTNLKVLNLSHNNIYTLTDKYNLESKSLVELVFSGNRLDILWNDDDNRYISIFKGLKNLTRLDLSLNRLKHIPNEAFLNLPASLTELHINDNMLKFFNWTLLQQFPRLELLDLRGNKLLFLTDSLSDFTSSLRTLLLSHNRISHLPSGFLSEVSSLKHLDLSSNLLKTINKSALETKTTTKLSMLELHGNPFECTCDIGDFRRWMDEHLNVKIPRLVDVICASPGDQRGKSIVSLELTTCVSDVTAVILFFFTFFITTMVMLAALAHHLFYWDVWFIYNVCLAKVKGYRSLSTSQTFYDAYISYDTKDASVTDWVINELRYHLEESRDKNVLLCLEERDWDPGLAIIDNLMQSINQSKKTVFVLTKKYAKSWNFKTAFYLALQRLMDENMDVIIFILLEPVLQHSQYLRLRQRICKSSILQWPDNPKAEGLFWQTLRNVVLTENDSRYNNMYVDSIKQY
From the text: A stable HEK293-Blue-hTLR-8 cell line was purchased from InvivoGen (Cat. #: hkb-htlr8, San Diego, Calif., USA). These cells were originally designed for studying the stimulation of human TLR8 by monitoring the activation of NF-κB. A SEAP (secreted embryonic alkaline phosphatase) reporter gene was placed under the control of the IFN-β minimal promoter fused to five NF-κB and AP-1-binding sites. The SEAP was induced by activating NF-κB and AP-1 via stimulating HEK-Blue hTLR8 cells with TLR8 ligands. Therefore the reporter expression was declined by TLR8 antagonist under the stimulation of a ligand, such as R848, for incubation of 20 hrs. The cell culture supernatant SEAP reporter activity was determined using QUANTI-Blue™ kit (Cat. #: rep-qb1, Invivogen, San Diego, Ca, USA) at a wavelength of 640 nm, a detection medium that turns purple or blue in the presence of alkaline phosphatase.
HEK293-Blue-hTLR8 cells were incubated at a density of 250,000˜450,000 cells/mL in a volume of 170 μL in a 96-well plate in Dulbecco's Modified Eagle's medium (DMEM) containing 4.5 g/L glucose, 50 U/mL penicillin, […], […], 2 mM L-glutamine, 10% (v/v) heat-inactivated fetal bovine serum with addition of 20 μL test compound in a serial dilution in the presence of final DMSO at 1% and 10 μL of 60 uM R848 in above DMEM, perform incubation under 37° C. in a CO2 incubator for 20 hrs. Then 20 μL of the supernatant from each well was incubated with 180 μL Quanti-blue substrate solution at 37° C. for 2 hrs and the absorbance was read at 620˜655 nm using a spectrophotometer. The signalling pathway that TLR8 activation leads to downstream NF-κB activation has been widely accepted, and therefore similar reporter assay was modified for evaluating TLR8 antagonist.

| SMILES | IC50 [nM] |
| --- | --- |
| C[C@@H]1CN(c2ccc(C#N)n3nccc23)C[C@H](CN2CC3(CCNCC3)C2)O1 [Example 24, 4-[(2S,6R)-2-(2,7-diazaspiro[3.5]nonan-2-ylmethyl)-6-methyl-morpholin-4-yl]pyrazolo[1,5-a]pyridine-7-carbonitrile] | 610 |
| C[C@@H]1CN(c2ccc(C#N)n3nccc23)C[C@H](CN2CCN[C@H](c3ccccc3)C2)O1 [Example 38, 4-[(2R,6S)-2-methyl-6-[[(3R)-3-phenylpiperazin-1-yl]methyl]morpholin-4-yl]pyrazolo[1,5-a]pyridine-7-carbonitrile] | 37 |
| C[C@@H]1CN(c2ccc(C#N)n3nccc23)C[C@H](CN2CCC(C)(N)CC2)O1 [Example 29, 4-[(2S,6R)-2-[(4-amino-4-methyl-1-piperidyl)methyl]-6-methyl-morpholin-4-yl]pyrazolo[1,5-a]pyridine-7-carbonitrile] | 52 |
| C[C@@H]1CN(c2ccc(C#N)n3nccc23)C[C@H](CN2CCC3NCC3C2)O1 (stereo partly drawn) [Example 70, 4-[(2S,6R)-2-(3,7-diazabicyclo[4.2.0]octan-3-ylmethyl)-6-methyl-morpholin-4-yl]pyrazolo[1,5-a]pyridine-7-carbonitrile] | 120 |
| C[C@@H]1CN(c2ccc(C#N)n3nccc23)C[C@H](CN2CC(N)C(F)(F)C2)O1 (stereo partly drawn) [Example 35, 4-[(2S,6R)-2-[(4-amino-3,3-difluoro-pyrrolidin-1-yl)methyl]-6-methyl-morpholin-4-yl]pyrazolo[1,5-a]pyridine-7-carbonitrile] | 950 |
| C[C@@H]1CN(c2ccc(C#N)n3nccc23)C[C@H](CN2CCN(C3CCNCC3)CC2Cc2ccccc2)O1 (stereo partly drawn) [Example 77, 4-[(2S,6R)-2-[[2-benzyl-4-(4-piperidyl)piperazin-1-yl]methyl]-6-methyl-morpholin-4-yl]pyrazolo[1,5-a]pyridine-7-carbonitrile] | 130 |
| C[C@@H]1CN(c2ccc(C#N)n3nccc23)C[C@H](CN2C3COCC2CC(N)C3)O1 (stereo partly drawn) [Example 58, 4-[(2S,6R)-2-[(7-amino-3-oxa-9-azabicyclo[3.3.1]nonan-9-yl)methyl]-6-methyl-morpholin-4-yl]pyrazolo[1,5-a]pyridine-7-carbonitrile] | 58 |
| C[C@@H]1CN(c2ccc(C#N)n3nccc23)C[C@H](CN2CC3CCNCC32)O1 (stereo partly drawn) [Example 56, 4-[(2S,6R)-2-(3,8-diazabicyclo[4.2.0]octan-8-ylmethyl)-6-methyl-morpholin-4-yl]pyrazolo[1,5-a]pyridine-7-carbonitrile] | 480 |
| C[C@@H]1CN(c2ccc(C#N)n3nccc23)C[C@H](CN2CCC3(CCNC3)C2)O1 (stereo partly drawn) [Example 6, 4-[(2S,6R)-2-(2,7-diazaspiro[4.4]nonan-2-ylmethyl)-6-methyl-morpholin-4-yl]pyrazolo[1,5-a]pyridine-7-carbonitrile] | 140 |
| CC1CNCCN1C[C@H]1CN(c2ccc(C#N)n3nccc23)C[C@@H](C)O1 (single isomer, unassigned) [Example 50B] | 52 |
| C[C@@H]1CN(c2ccc(C#N)n3nccc23)C[C@H](CN2CCC3NCCC3C2)O1 (stereo partly drawn) [Example 41, 4-[(2S,6R)-2-(1,2,3,3a,4,6,7,7a-octahydropyrrolo[3,2-c]pyridin-5-ylmethyl)-6-methyl-morpholin-4-yl]pyrazolo[1,5-a]pyridine-7-carbonitrile] | 29 |
| C[C@@H]1CN(c2ccc(C#N)n3nccc23)C[C@H](CN2CCNCC2)O1 [Example 5, 4-[(2R,6S)-2-methyl-6-(piperazin-1-ylmethyl)morpholin-4-yl]pyrazolo[1,5-a]pyridine-7-carbonitrile] | 78 |
| C[C@@H]1CN(c2ccc(C#N)n3nccc23)C[C@H](CN2CCOC3(CCNCC3)C2)O1 [Example 71, 4-[(2R,6S)-2-methyl-6-(1-oxa-4,9-diazaspiro[5.5]undecan-4-ylmethyl)morpholin-4-yl]pyrazolo[1,5-a]pyridine-7-carbonitrile] | 55 |
| C[C@@H]1CN(c2ccc(C#N)n3nccc23)C[C@H](CN2CCC3(CCNCC3)CC2)O1 [Example 3, 4-[(2S,6R)-2-(3,9-diazaspiro[5.5]undecan-3-ylmethyl)-6-methyl-morpholin-4-yl]pyrazolo[1,5-a]pyridine-7-carbonitrile] | 620 |
| C[C@@H]1CN(c2ccc(C#N)n3nccc23)C[C@H](CN2CCC3(CN(C)CCO3)C2)O1 (stereo partly drawn) [Example 76, 4-[(2R,6S)-2-methyl-6-[(9-methyl-6-oxa-2,9-diazaspiro[4.5]decan-2-yl)methyl]morpholin-4-yl]pyrazolo[1,5-a]pyridine-7-carbonitrile] | 340 |
| C[C@@H]1CN(c2ccc(C#N)n3nccc23)C[C@H](CN2CCNC3(CC3)C2)O1 [Example 40, 4-[(2S,6R)-2-(4,7-diazaspiro[2.5]octan-7-ylmethyl)-6-methyl-morpholin-4-yl]pyrazolo[1,5-a]pyridine-7-carbonitrile] | 140 |
| C[C@@H]1CN(c2ccc(C#N)n3nccc23)C[C@H](CN2CCC3(CCCNC3)CC2)O1 [Example 27, 4-[(2S,6R)-2-(2,9-diazaspiro[5.5]undecan-9-ylmethyl)-6-methyl-morpholin-4-yl]pyrazolo[1,5-a]pyridine-7-carbonitrile] | 190 |
| C[C@@H]1CN(c2ccc(C#N)n3nccc23)C[C@H](CN2CCCC3(CCNC3)C2)O1 (stereo partly drawn) [Example 44, 4-[(2S,6R)-2-(2,7-diazaspiro[4.5]decan-7-ylmethyl)-6-methyl-morpholin-4-yl]pyrazolo[1,5-a]pyridine-7-carbonitrile] | 25 |
| C[C@@H]1CN(c2ccc(C#N)n3nccc23)C[C@H](CN2CCC(N3CCCCC3)CC2)O1 [Example 16, 4-[(2R,6S)-2-methyl-6-[[4-(1-piperidyl)-1-piperidyl]methyl]morpholin-4-yl]pyrazolo[1,5-a]pyridine-7-carbonitrile] | 19 |
| C[C@@H]1CN(c2ccc(C#N)n3nccc23)C[C@H](CN2CC3CCC2CN3)O1 (stereo partly drawn) [Example 30, 4-[(2S,6R)-2-(2,5-diazabicyclo[2.2.2]octan-2-ylmethyl)-6-methyl-morpholin-4-yl]pyrazolo[1,5-a]pyridine-7-carbonitrile] | 100 |
| C[C@@H]1CN(c2ccc(C#N)n3nccc23)C[C@H](CN2CCC3(CCCCN3)CC2)O1 [Example 47, 4-[(2S,6R)-2-(1,9-diazaspiro[5.5]undecan-9-ylmethyl)-6-methyl-morpholin-4-yl]pyrazolo[1,5-a]pyridine-7-carbonitrile] | 31 |
| C[C@@H]1CN(c2ccc(C#N)n3nccc23)C[C@H](CN2C3CNCC2COC3)O1 [Example 57, 4-[(2R,6S)-2-methyl-6-(3-oxa-7,9-diazabicyclo[3.3.1]nonan-9-ylmethyl)morpholin-4-yl]pyrazolo[1,5-a]pyridine-7-carbonitrile] | 62 |
| C[C@@H]1CN(c2ccc(C#N)n3nccc23)C[C@H](CN2CC3CCC(C2)C3N)O1 (stereo partly drawn) [Example 36, 4-[(2S,6R)-2-[(8-amino-3-azabicyclo[3.2.1]octan-3-yl)methyl]-6-methyl-morpholin-4-yl]pyrazolo[1,5-a]pyridine-7-carbonitrile] | 90 |
| C[C@@H]1CN(c2ccc(C#N)n3nccc23)C[C@H](CN2CC3(CCCNC3)C2)O1 [Example 10, 4-[(2S,6R)-2-(2,8-diazaspiro[3.5]nonan-2-ylmethyl)-6-methyl-morpholin-4-yl]pyrazolo[1,5-a]pyridine-7-carbonitrile] | 130 |
